Reference: patent US20080200392A1, “Methods for Treating Parkinson's Disease” (priority 2005, published 2008)
No end group written: not given here.

B1: … (SEQ ID NO:3) (peptide)
peptide: DCAFHLGELVWCT
B2: … (SEQ ID NO:16) (peptide)
peptide: APPDCAWHLGELVWCT
B3: … (SEQ ID NO:14) (peptide)
peptide: APPCARHLGELVWCT
modifications: not fully specified; cysteine pairing not given here
B4: … (SEQ ID NO:15) (peptide)
peptide: APPCAFHLGELVWCT
modifications: not fully specified; cysteine pairing not given here
B5: … (SEQ ID NO:13) (peptide)
peptide: APPCAWHLGELVWCT
modifications: not fully specified; cysteine pairing not given here

Legend:
highly purified FcγIII = assay: reverse ELISA: PAP without competitor on FcγIII-coated plate
highly purified FcγIIa = assay: reverse ELISA: PAP without competitor on FcγIIa-coated plate
Sequence of highly purified FcγIIa (P12318 34-317): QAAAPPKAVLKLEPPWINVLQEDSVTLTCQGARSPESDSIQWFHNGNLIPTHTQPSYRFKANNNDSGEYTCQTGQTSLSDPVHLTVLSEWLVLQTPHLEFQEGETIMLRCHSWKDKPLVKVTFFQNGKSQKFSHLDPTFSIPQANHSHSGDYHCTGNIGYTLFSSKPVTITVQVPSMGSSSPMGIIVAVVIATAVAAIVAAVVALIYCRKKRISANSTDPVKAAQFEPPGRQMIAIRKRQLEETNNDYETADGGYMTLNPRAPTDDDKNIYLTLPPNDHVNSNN

highly purified FcγIIb = assay: reverse ELISA: PAP without competitor on FcγIIb-coated plate
[1] = target: human wt α-synuclein (Sigma-Aldrich) (human) (UniProt P37840); assay: reverse ELISA: PAP without competitor on α-synuclein-coated plate (taken as the 24 h coating)
human C1q = assay: Reverse ELISA: inhibition of PAP immune complex binding to C1q coated plates; details: for OD 405 nm: PAP pre-incubated 1 h with peptide or C1q, 30 min on C1q coated plates, lower OD = more inhibition, positive control 2.355; for inhibition of C1q binding, ranking in words: among the peptides of Table 1
From the text: (§1) For this reason, a “reverse ELISA” technique was used to assess binding of the Fc region to ligands that bind to immune complexed IgG Fc. In a reverse ELISA, the enzyme (e.g., HRP) is not covalently conjugated to the Fc portion of the secondary antibody. Rather, a preformed immune complex of peroxidase-rabbit (or mouse) anti-peroxidase IgG (“PAP” complex) is used. […] In these experiments, an Fc CH2-CH3 cleft binding ligand (e.g., purified human C1q) was bound to microwell plates. In the absence of competitor, PAP complexes bound to the immobilized ligand and the reaction between HRP and its substrate produced a signal. This signal was reduced by polypeptides and compounds provided herein that inhibited PAP binding to the immobilized ligand.
PAP complexes were formed mixing 2 μl of rabbit anti-peroxidase (Sigma Chemicals, St. Louis, Mo.) with 50 μl of peroxidase (Sigma-Aldrich, St. Louis, Mo.) in 1 ml distilled water. PAP (100 μl) were pre-incubated with 100 μl of peptide for one hour, 100 μl were pre-incubated with 100 μl of peptide or human C1q (Quidel Corp., San Diego, Calif.) for one hour. The C1q/PAP and peptide/PAP mixtures (100 μl) were incubated with C1q coated plates for 30 minutes. After washing, plates were incubated with ATBS (Quidel Corp.) for 15 minutes and read at 405 nm.

FcγIIa = assay: Reverse ELISA: inhibition of PAP immune complex binding to FcγIIa coated plates; details: PAP pre-incubated 1 h with peptide, 1 h on FcγIIa coated plates; lower = more inhibition; positive control 1.599
From the text: as §1
(§2) Once the reverse ELISA protocol was established using the C1q assay, the assay was redesigned using FcγIIa, FcγIIb, and FcγIII in place of C1q. Highly purified FcγIIa, FcγIIb and FcγIII were immunoabsorbed onto plastic microwells. After optimizing the FcγR reverse ELISA system, simple competitive inhibition experiments using polypeptides provided herein were conducted to investigate their ability to inhibit binding of immune complexes to purified FcγR.
(§3) Falcon microtiter plates were coated with 1:10 dilutions of highly purified FcγIIa, FcγIIb and FcγIII and incubated for 24 hours. The plates were washed and then blocked with 5×BSA blocking solution (Alpha Diagnostic International, San Antonio, Tex.) for 24 hours. PAP immune complexes were formed as described above. PAP (100 μl) were pre-incubated with 100 μl of peptide for one hour. PAP/peptide mixtures were added to the FcγR coated plates and incubated for one hour. After washing, plates were incubated with ABTS substrate for 15 minutes and read at 405 nm.

FcγIIb = assay: Reverse ELISA: inhibition of PAP immune complex binding to FcγIIb coated plates; details: PAP pre-incubated 1 h with peptide, 1 h on FcγIIb coated plates; lower = more inhibition; positive control 1.394
From the text: as §1, §2, §3

FcγIII = assay: Reverse ELISA: inhibition of PAP immune complex binding to FcγIII coated plates; details: PAP pre-incubated 1 h with peptide, 1 h on FcγIII coated plates; lower = more inhibition; positive control 1.588
From the text: as §1, §2, §3

human wt α-synuclein = assay: Reverse ELISA: inhibition of immune complexed IgG (PAP) binding to wt α-synuclein; details: for Wt α-synuclein (read at 405 nm): PAP pre-incubated 1 h with peptide
Experimental: PAP complexes were formed mixing 2 μl of rabbit anti-peroxidase (Sigma) with 50 μl of peroxidase (Sigma) in 1 ml distilled water. PAP (100 μl) were pre-incubated with 100 μl of peptide for one hour. Control PAP (200 μl) also was incubated for one hour. 100 μl of either PAP or PAP/peptide was added to Falcon microtiter plates that had been coated for 24 or 48 hours with 167 μg/ml human wt α-synuclein (Sigma-Aldrich), and the plates were incubated for 60 minutes. After washing, plates were incubated with ATBS for 30 minutes and then read at 405 nm.

FcR = assay: FcγR reverse ELISA, overall statement on FcR binding to PAP; details: among the peptides of Table 2
Experimental: as §2, §3

IgG Fc = IgG Fc (Homo sapiens, UniProt P01857); assay: Alanine substitution effect on binding of SEQ ID NO:16 to IgG Fc; details: alanine substitution of SEQ ID NO:16 Val-13 or Trp-14
From the text: The indole ring of Trp-14 in SEQ ID NO:16 has a hydrophobic interaction with IgG Fc His-435. SEQ ID NO:16 also has hydrophobic packing with IgG Fc Met-252, Ile-253, Ser-254, His-435, and Tyr-436. Alanine substitution of IgG Fc Asn-434, His-435, or Tyr-436 disrupts binding (ΔΔG≧1.5 kcal/mol). Similarly, alanine substitution of SEQ ID NO:16 Val-13 or Trp-14 results in disruption of binding (ΔΔG≧2.0 kcal/mol).

[2] = target: preformed immune complex of peroxidase-rabbit anti-peroxidase IgG (PAP complex) (rabbit; horseradish) (UniProt P00433); assay: reverse ELISA competition: PAP pre-incubated with peptide, then on FcγIII-coated plate (competitor: immobilized FcγIII)
Sequence of preformed immune complex of peroxidase-rabbit anti-peroxidase IgG (PAP complex) (rabbit; horseradish) (P00433 31-338, one chain of several): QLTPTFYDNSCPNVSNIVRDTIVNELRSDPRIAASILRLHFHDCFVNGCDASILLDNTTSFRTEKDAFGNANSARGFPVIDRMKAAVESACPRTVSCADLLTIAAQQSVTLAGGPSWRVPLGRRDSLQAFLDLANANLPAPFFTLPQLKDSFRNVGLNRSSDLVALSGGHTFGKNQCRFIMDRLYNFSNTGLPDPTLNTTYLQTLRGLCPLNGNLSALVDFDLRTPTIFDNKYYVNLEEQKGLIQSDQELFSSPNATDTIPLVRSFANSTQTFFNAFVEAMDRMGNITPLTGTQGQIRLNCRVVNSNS

[3] = target: preformed immune complex of peroxidase-rabbit anti-peroxidase IgG (PAP complex) (rabbit; horseradish) (UniProt P00433); assay: reverse ELISA competition: PAP pre-incubated with peptide, then on FcγIIa-coated plate (competitor: immobilized FcγIIa)
[4] = target: preformed immune complex of peroxidase-rabbit anti-peroxidase IgG (PAP complex) (rabbit; horseradish) (UniProt P00433); assay: reverse ELISA competition: PAP pre-incubated with peptide, then on FcγIIb-coated plate (competitor: immobilized FcγIIb)
[5] = target: preformed immune complex of peroxidase-rabbit anti-peroxidase IgG (PAP complex) (rabbit; horseradish) (UniProt P00433); assay: reverse ELISA competition: PAP pre-incubated with peptide, then on C1q-coated plate; signal is PAP bound to C1q (competitor: immobilized human C1q)
[6] = target: preformed immune complex of peroxidase-rabbit anti-peroxidase IgG (PAP complex) (rabbit; horseradish) (UniProt P00433); assay: reverse ELISA competition: PAP pre-incubated with peptide, then on plate coated 24 h with human wt α-synuclein (competitor: immobilized α-synuclein)
[7] = target: preformed immune complex of peroxidase-rabbit anti-peroxidase IgG (PAP complex) (rabbit; horseradish) (UniProt P00433); assay: reverse ELISA competition: PAP pre-incubated with peptide, then on plate coated 48 h with human wt α-synuclein (competitor: immobilized α-synuclein)
[8] = plates coated 24 h with 167 μg/ml α-synuclein, positive control 1.433
[9] = plates coated 48 h with 167 μg/ml α-synuclein, positive control […]

Molecule | OD 405 nm (human C1q) | FcγIIa (read at 405 nm) (FcγIIa) | FcγIIb (read at 405 nm) (FcγIIb) | FcγIII (read at 405 nm) (FcγIII) | OD 405 nm [2] [OD 405 nm] | OD 405 nm [3] [OD 405 nm] | OD 405 nm [4] [OD 405 nm] | OD 405 nm [5] [OD 405 nm] | also measured
preformed immune complex of peroxidase-rabbit anti-peroxidase IgG (PAP complex) (from UniProt P00433 31-338) (antibody) |  |  |  |  |  |  |  |  | OD 405 nm (highly purified FcγIII): 1.59 OD 405 nm; OD 405 nm (highly purified FcγIIa): 1.6 OD 405 nm; OD 405 nm (highly purified FcγIIb): 1.39 OD 405 nm; OD 405 nm [1]: 1.43 OD 405 nm
APPCAFHLGELVWCT (not fully specified; cysteine pairing not given here) | 0.983 | 0.605 | 0.380 | 0.880 |  |  |  |  | 
APPCAWHLGELVWCT | 1.148 | 0.658 | 0.562 | 0.530 |  |  |  |  | 
APPCARHLGELVWCT | 0.567 | 0.956 | 0.768 | 0.709 |  |  |  |  | inhibition of C1q binding, ranking in words (human C1q): next best result
APPDCAWHLGELVWCT | 0.389 | 0.509 | 0.496 | 0.670 |  |  |  |  | inhibition of C1q binding, ranking in words (human C1q): greatest inhibition of C1q binding, almost equaling C1q itself; inhibition of α-synuclein binding to PAP, ranking in words (human wt α-synuclein; among the peptides of Table 3): greatest inhibition of α-synuclein binding to PAP; Wt α-synuclein (read at 405 nm) (human wt α-synuclein; [8]): 0.088; Wt α-synuclein (read at 405 nm) (human wt α-synuclein; [9]): 0.136; inhibition of FcR binding to PAP, ranking in words (FcR): greatest inhibition of FcR binding to PAP; ΔΔG, disruption of binding (IgG Fc): ≥ 2.0 kcal/mol
DCAFHLGELVWCT | 0.859 | 0.660 | 0.510 | 0.810 |  |  |  |  | 
DCAWHLGELVWCT | 1.100 | 0.561 | 0.532 | 0.741 |  |  |  |  | Wt α-synuclein (read at 405 nm) (human wt α-synuclein; [8]): 0.111; Wt α-synuclein (read at 405 nm) (human wt α-synuclein; [9]): 0.152
B1 |  |  |  |  | 0.81 | 0.66 | 0.51 | 0.859 | 
B2 |  |  |  |  | 0.67 | 0.509 | 0.496 | 0.389 | OD 405 nm [6]: 0.088 OD 405 nm; OD 405 nm [7]: 0.136 OD 405 nm
B3 |  |  |  |  | 0.709 | 0.956 | 0.768 | 0.567 | 
B4 |  |  |  |  | 0.88 | 0.605 | 0.38 | 0.983 | 
B5 |  |  |  |  | 0.53 | 0.658 | 0.562 | 1.15 | 
